Data taken from article PMC10632405, “A novel in silico scaffold-hopping method for drug repositioning in rare and intractable diseases” (Scientific Reports, 2023).

Molecular target: PAK5 (Homo sapiens, UniProt Q9P286)
Settings: read-out: % inhibition at 50 nM

PAK5, sequence (Q9P286 whole entry): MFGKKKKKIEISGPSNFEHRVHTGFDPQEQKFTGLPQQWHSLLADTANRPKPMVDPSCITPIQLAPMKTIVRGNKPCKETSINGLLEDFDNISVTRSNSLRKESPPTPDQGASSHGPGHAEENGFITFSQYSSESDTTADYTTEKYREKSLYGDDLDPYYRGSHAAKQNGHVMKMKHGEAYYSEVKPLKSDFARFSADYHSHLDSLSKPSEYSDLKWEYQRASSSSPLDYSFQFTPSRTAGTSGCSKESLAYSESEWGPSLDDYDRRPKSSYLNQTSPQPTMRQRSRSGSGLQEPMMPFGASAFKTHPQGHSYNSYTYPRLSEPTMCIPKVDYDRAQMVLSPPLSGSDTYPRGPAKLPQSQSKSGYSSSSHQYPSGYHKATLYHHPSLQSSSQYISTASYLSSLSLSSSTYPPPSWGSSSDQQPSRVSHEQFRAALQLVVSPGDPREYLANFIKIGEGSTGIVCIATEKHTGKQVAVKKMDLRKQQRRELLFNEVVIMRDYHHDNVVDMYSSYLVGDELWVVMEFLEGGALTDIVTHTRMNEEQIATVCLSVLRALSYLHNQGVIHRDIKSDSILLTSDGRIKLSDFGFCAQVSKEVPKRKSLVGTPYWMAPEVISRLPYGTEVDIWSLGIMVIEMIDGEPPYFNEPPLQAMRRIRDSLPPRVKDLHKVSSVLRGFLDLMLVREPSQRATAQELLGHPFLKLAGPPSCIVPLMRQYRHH

Q: `NC(=O)c1cnc(N[C@@H]2CCCC[C@@H]2N)nc1Nc1cccc(-n2nccn2)c1` [BIIB-057] was tested. Which inhibition at 0.05 µM did it give?
A: > 50%
